Laboratory results: paper PMC6017366, “Characterization of Two VAO-Type Flavoprotein Oxidases from Myceliophthora thermophila” (Molecules : A Journal of Synthetic Chemistry and Natural …, 2018)

Tests used:
MtVAO615 = molecular target: T1, MtVAO615 (Thermothelomyces thermophilus, UniProt G2QDQ9); assay: X-ray crystal structure ([…] and […] Å); format: binding; conditions: covalent; bicovalent 6-S-cysteinyl (Cys222) and 8alpha-N1-histidyl (His157) FAD; crystals at pH 7.5 and pH 5.0
T1 construct: gene MYCTH_2305637; mature secreted protein, signal peptide (first 26 residues) removed; homologous expression in M. thermophila C1; N-glycosylated; bicovalent FAD (His157, Cys222); predicted 60 kDa, about 70 kDa on SDS-PAGE

MtVAO713 = molecular target: T2, MtVAO713 (Thermothelomyces thermophilus, UniProt G2QMS8); assay: GC/MS of conversion to 12-ketooleic acid; format: biochemical; conditions: 5 mM ricinoleic acid, 8 µM enzyme, 16 h; oxygen as electron acceptor; 50 mM Tris/Cl pH 8.0, 10% DMSO, 30 or 37 °C; very poor substrate
T2 construct: gene MYCTH_2309690; mature secreted protein, signal peptide (first 26 residues) removed; homologous expression in M. thermophila C1; monocovalent FAD (His159); N-glycosylated at Asn103 and Asn131; about 60 kDa on SDS-PAGE, 53 kDa by gel filtration
T2 sequence (G2QMS8 entry or part of it): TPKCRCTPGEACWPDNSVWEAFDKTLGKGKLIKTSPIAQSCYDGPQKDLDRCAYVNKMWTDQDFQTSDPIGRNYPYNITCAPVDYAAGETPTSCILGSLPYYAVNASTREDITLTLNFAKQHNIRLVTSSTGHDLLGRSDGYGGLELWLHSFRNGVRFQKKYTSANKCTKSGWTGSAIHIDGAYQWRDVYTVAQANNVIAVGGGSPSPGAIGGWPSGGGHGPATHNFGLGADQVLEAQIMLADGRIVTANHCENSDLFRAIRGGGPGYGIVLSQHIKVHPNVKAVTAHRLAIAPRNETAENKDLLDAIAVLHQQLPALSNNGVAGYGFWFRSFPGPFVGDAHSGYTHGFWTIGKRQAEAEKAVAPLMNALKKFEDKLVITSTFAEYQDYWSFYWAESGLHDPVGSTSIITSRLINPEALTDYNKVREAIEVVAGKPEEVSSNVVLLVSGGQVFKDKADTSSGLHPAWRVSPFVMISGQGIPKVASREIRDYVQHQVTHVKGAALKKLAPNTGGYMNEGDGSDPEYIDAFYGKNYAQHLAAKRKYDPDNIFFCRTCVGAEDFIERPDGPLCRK

T1 sequence (G2QDQ9 27-574): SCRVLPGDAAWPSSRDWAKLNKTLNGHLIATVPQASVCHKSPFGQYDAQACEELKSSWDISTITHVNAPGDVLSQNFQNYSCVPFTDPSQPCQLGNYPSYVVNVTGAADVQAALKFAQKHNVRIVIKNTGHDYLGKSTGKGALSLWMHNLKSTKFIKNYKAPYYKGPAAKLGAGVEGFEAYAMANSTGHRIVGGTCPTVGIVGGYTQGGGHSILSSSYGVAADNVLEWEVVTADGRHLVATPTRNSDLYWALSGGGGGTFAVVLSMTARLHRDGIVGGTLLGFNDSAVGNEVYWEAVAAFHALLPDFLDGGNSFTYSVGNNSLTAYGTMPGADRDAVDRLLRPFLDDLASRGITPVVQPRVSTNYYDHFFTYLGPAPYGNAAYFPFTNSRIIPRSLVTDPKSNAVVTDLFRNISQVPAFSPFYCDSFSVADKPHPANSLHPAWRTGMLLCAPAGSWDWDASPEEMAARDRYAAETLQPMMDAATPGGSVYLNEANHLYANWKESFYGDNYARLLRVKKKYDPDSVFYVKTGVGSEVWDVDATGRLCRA

| SMILES | X-ray crystal structure (2.0 and 2.2 Å) (MtVAO615) | GC/MS of conversion to 12-ketooleic acid (MtVAO713) |
| --- | --- | --- |
| Cc1cc2nc3c(=O)[nH]c(=O)nc-3n(C[C@H](O)[C@H](O)[C@H](O)COP(=O)(O)OP(=O)(O)OC[C@H]3O[C@@H](n4cnc5c(N)ncnc54)[C@H](O)[C@@H]3O)c2cc1C [FAD] | MtVAO615 harbors a bicovalently linked 6-S-cysteinyl-8α-N1-histidyl FAD | – |
| CCCCCC[C@@H](O)C/C=C\CCCCCCCC(=O)O [ricinoleic acid] | – | The conversion of ricinoleic acid by MtVAO713 was confirmed by GC/MS analysis |
